Data on 4 compounds can be found in patent US7507817B2, “Prostaglandin prodrugs” (Allergan, Inc., priority 2006, dated 2009).

What all share (type): in vivo
In data set [1] the test system is normotensive dogs. The experiment in a line: Intraocular pressure (IOP) decrease in normotensive dogs. To be noted: once daily for 5 days. Here is the method: (§1) (Z)-7-[(1R,2S,3R,5R)-5-Chloro-2-(3,5-dichloro-phenoxymethyl)-3-hydroxy-cyclopentyl]-hept-5-enoic acid 2-hydroxy-ethyl ester (1) was tested in normotensive dogs at 0.1%, dosing once daily for 5 days. The maximum intraocular pressure (IOP) decrease from baseline was 6.6 mmHg (40%) at 78 h; the maximum ocular surface hyperemia (OSH) score was 0.9 at 50 h. This compound was also tested in laser-induced hypertensive monkeys, using one single day dose. At 0.1%, the maximum IOP decrease from baseline was 12.5 mmHg (33%) at […]
(§2) (Z)-7-[(1R,2S,3R,5R)-5-Chloro-2-(3,5-dichloro-phenoxymethyl)-3-hydroxy-cyclopentyl]-hept-5-enoic acid 2-morpholin-4-yl-ethyl ester (2) was tested in normotensive dogs at 0.1%, dosing once daily for 5 days. The maximum intraocular pressure (IOP) decrease from baseline was 5.1 mmHg (34%) at 78 h; the maximum ocular surface hyperemia (OSH) score was 0.9 at 30 h. This compound was also tested in laser-induced hypertensive monkeys, using one single day dose. At 0.1%, the maximum IOP decrease from baseline was 11.9 mmHg (32%) at 6 h.
(§3) (Z)-7-[(1R,2S,3R,5R)-5-Chloro-2-(3,5-dichloro-phenoxymethyl)-3-hydroxy-cyclopentyl]-hept-5-enoic acid was tested at multiple concentrations in normotensive dogs, dosing once daily for 5 days. At 0.05%, the maximum IOP decrease from baseline was 4.3 mmHg (30%) at 6 h; the maximum OSH score was 0.6 at 6 h. At 0.1%, the maximum IOP decrease from baseline was 4.8 mmHg (34%) at 102 h; the maximum OSH score was 1.3 at 6 h. This compound was also tested in laser-induced hypertensive monkeys, using one single day dose. At 0.1%, the maximum IOP decrease from baseline was 6 mmHg (19%) at 6 h.
(§4) (Z)-7-[(1R,2S,3R,5R)-5-Chloro-2-(3,5-dichloro-phenoxymethyl)-3-hydroxy-cyclopentyl]-hept-5-enoic acid isopropyl ester was tested at multiple concentrations in normotensive dogs, dosing once daily for 5 days. At 0.01%, the maximum intraocular pressure (IOP) decrease from baseline was 1.1 mmHg (7%) at 2 h; the maximum ocular surface hyperemia (OSH) score was 0.6 at 74 h. At 0.05%, the maximum intraocular pressure (IOP) decrease from baseline was 2.8 mmHg (18%) at 6 h; the maximum ocular surface hyperemia (OSH) score was 0.6 at 74 h. This compound was also tested in laser-induced hypertensive monkeys, using one single day dose. At 0.01%, the maximum IOP decrease from baseline was 6.8 mmHg (18%) at 6 h. At 0.05%, the maximum IOP decrease from baseline was 6 mmHg (16%) at 2 h.

Data set [2] deals with normotensive dogs. Kind of data set: Ocular surface hyperemia (OSH) score in normotensive dogs. To be noted: once daily for 5 days; for maximum OSH score: maximum at 6 h. Here is the method: as §1, §2, §3, §4
In data set [3] the test system is laser-induced hypertensive monkeys. The experiment in a line: IOP decrease in laser-induced hypertensive monkeys. To be noted: one single day dose. Here is the method:
as §1, §2, §3, §4

Regarding `CC(C)OC(=O)CCC/C=C\C[C@@H]1[C@@H](COc2cc(Cl)cc(Cl)c2)[C@H](O)C[C@H]1Cl` [(Z)-7-[(1R,2S,3R,5R)-5-Chloro-2-(3,5-dichloro-phenoxymethyl)-3-hydroxy-cyclopentyl]-hept-5-enoic acid isopropyl ester], the “maximum intraocular pressure (IOP) decrease from baseline” value in the data set on normotensive dogs [1] (0.01%, maximum at 2 h) is recorded as 1.1 mmHg. For the same compound, in the data set on normotensive dogs [1] (0.01%, maximum at 2 h), the “maximum intraocular pressure (IOP) decrease from baseline (percent)” value stood at 7%. In addition, the “maximum IOP decrease from baseline” value in the data set with normotensive dogs [1] (0.05%, maximum at 6 h) is recorded as 2.8 mmHg; in data set [3] (0.01%, maximum at 6 h), 6.8 mmHg; in data set [3] (0.05%, maximum at 2 h), 6 mmHg. Besides, the “maximum IOP decrease from baseline (percent)” value in the data set with normotensive dogs [1] (0.05%, maximum at 6 h) is recorded as 18%; in data set [3] (0.01%, maximum at 6 h) it was 18%; in data set [3] (0.05%, maximum at 2 h) it was 16%. For the same compound, the “maximum ocular surface hyperemia (OSH) score” value came out at 0.6 in the data set on normotensive dogs [2] (0.01%, maximum at 74 h) and 0.6 in the data set with normotensive dogs [2] (0.05%, maximum at 74 h).
As for `O=C(O)CCC/C=C\C[C@@H]1[C@@H](COc2cc(Cl)cc(Cl)c2)[C@H](O)C[C@H]1Cl` [(Z)-7-[(1R,2S,3R,5R)-5-Chloro-2-(3,5-dichloro-phenoxymethyl)-3-hydroxy-cyclopentyl]-hept-5-enoic acid], the “maximum IOP decrease from baseline” value in the data set on normotensive dogs [1] (0.05%, maximum at 6 h) worked out at 4.3 mmHg; with normotensive dogs [1] (0.1%, maximum at 102 h) it was 4.8 mmHg; in data set [3] (0.1%, maximum at 6 h), 6 mmHg. Besides, the “maximum IOP decrease from baseline (percent)” value in the data set on normotensive dogs [1] (0.05%, maximum at 6 h) was 30%; in the data set with normotensive dogs [1] (0.1%, maximum at 102 h), 34%; in data set [3] (0.1%, maximum at 6 h) it was 19%. Moreover, the “maximum OSH score” value in the data set on normotensive dogs [2] (0.05%) came out at 0.6; in the data set on normotensive dogs [2] (0.1%) it was 1.3.
As for `O=C(CCC/C=C\C[C@@H]1[C@@H](COc2cc(Cl)cc(Cl)c2)[C@H](O)C[C@H]1Cl)OCCO` [Compound 1, (Z)-7-[(1R,2S,3R,5R)-5-Chloro-2-(3,5-dichloro-phenoxymethyl)-3-hydroxy-cyclopentyl]-hept-5-enoic acid 2-hydroxy-ethyl ester], in the data set with normotensive dogs [1] (0.1%, maximum at 78 h), the “maximum intraocular pressure (IOP) decrease from baseline” value is 6.6 mmHg and the “maximum intraocular pressure (IOP) decrease from baseline (percent)” value turned out to be 40%. In addition, the “maximum ocular surface hyperemia (OSH) score” value in the data set with normotensive dogs [2] (0.1%, maximum at 50 h) came out at 0.9. In data set [3] (0.1%, maximum at 4), the “maximum IOP decrease from baseline” value was found to be 12.5 mmHg and the “maximum IOP decrease from baseline (percent)” value is on record as 33%.
On to `O=C(CCC/C=C\C[C@@H]1[C@@H](COc2cc(Cl)cc(Cl)c2)[C@H](O)C[C@H]1Cl)OCCN1CCOCC1` [Compound 2, (Z)-7-[(1R,2S,3R,5R)-5-Chloro-2-(3,5-dichloro-phenoxymethyl)-3-hydroxy-cyclopentyl]-hept-5-enoic acid 2-morpholin-4-yl-ethyl ester], for which, in the data set with normotensive dogs [1] (0.1%, maximum at 78 h), the “maximum intraocular pressure (IOP) decrease from baseline” value is on record as 5.1 mmHg and the “maximum intraocular pressure (IOP) decrease from baseline (percent)” value was 34%. In the data set with normotensive dogs [2] (0.1%, maximum at 30 h), the “maximum ocular surface hyperemia (OSH) score” value is listed as 0.9. In data set [3] (0.1%, maximum at 6 h), the “maximum IOP decrease from baseline” value came out at 11.9 mmHg and the “maximum IOP decrease from baseline (percent)” value is 32%.
